{"source": "patent US12428447B2", "about": "“Peptide-based non-proteinaceous cargo delivery” (priority 2019, dated 2025)", "key": {"[1]": {"test_system": "HedgeHog signalling pathway", "assay": "Hedgehog pathway inhibitor delivery to Gli-luciferase reporter NIH3T3 cells (luminescence)", "format": "cell-based, Mouse", "conditions": "for Mean luminescence intensity: inhibitor 100 μM, 90 seconds, mShh-stimulated reporter cells; for cellular luminescence intensity in the presence of FSD250D as compared to in the absence of FSD250D: +mShh, inhibitor transduced by FSD250D", "description": "Stock solutions of cargoes were prepared as follows: Gant61 stock (20 mM in DMSO); HPI4 stock (40 mM in DMSO); Itraconazole stock (4.8 mM (4 mg/mL) in DMSO); Arsenic trioxide (ATO) stock (40 mM in H2O). Peptide shuttle agent (5 μM) and Hedgehog pathway inhibitor (100 μM) were mixed and volume was completed to 50 μL with PBS.\nHedgehog signaling pathway Gli Reporter NIH 3T3 cells were cultured in DMEM containing 10% calf serum. Cells were trypsinized, centrifuged and resuspended at 10 million cells/mL in PBS. 50 μL of cells (500 000 cells/well) were distributed in a round bottom non-treated 96-well plate. Resuspended cells were mixed with a delivery mix containing the peptide shuttle agent (5 μM) and Hedgehog pathway inhibitor (100 μM). Cells were incubated 90 seconds with the delivery mix at room temperature, 200 μL of DMEM containing 10% calf serum (200 μL) was added in each well, and cells were centrifuged (400 g, 4 min.) and washed with 200 μL of PBS. Cells were then resuspended in 200 μL of DMEM and then transferred to a well of a 6-well plate containing 1 mL of DMEM containing 10% calf serum and incubated at 37° C. for 2 hours. The media was gently removed and 1 ml of either control media (Opti-MEM™) or activating media (Opti-MEM with 5 μg/mL mShh) was added to each well. Cells were incubated at 37° C. for 24-30 hours.\nFor analyses, cells were trypsinized and resuspended in each well with 200 μL of Opti-MEM™, and then split equally to two wells of a round bottom 96-well plate. Viability was assessed using flow cytometry analysis and ONE-Step Luciferase assay was used to measure luminescence following manufacturer's instructions.\nBriefly, the NIH3T3 Gli-luciferase reporter cell line is designed to monitor the activity of the HedgeHog signaling pathway and contains the firefly luciferase gene under the control of Gli responsive elements stably integrated into NIH3T3 cells. As shown in FIG. 3 and Table 1, exposure of the NIH3T3 Gli-luciferase reporter cells to recombinant mouse Sonic HedgeHog protein as a positive control (“Ctrl+mShh”) results in an increase in luminescence intensity that is not observed in the negative control cells which were not exposed to mShh (“Ctrl−mShh”)."}, "[2]": {"test_system": "HeLa cells", "assay": "Propidium iodide (PI) transduction in HeLa cells, flow cytometry", "format": "cell-based, Human", "conditions": "for delivery / transduction of PI: shuttle or control peptide 10 μM, PI 10 μg/mL, 1 minute, 2 hours after delivery", "description": "HeLa cells were plated (20 000 cells/well) in a 96 well-dish the day prior the experiment. Each delivery mix comprising a synthetic peptide shuttle agent (10 μM) and the propidium iodide (PI) (10 μg/mL) or the GFP-NLS (10 μM) were prepared and completed to 50 μL with phosphate-buffered saline (PBS). Cells were washed once with PBS and the Shuttle/PI or Shuttle/GFP-NLS added on cells for one minute. Then 100 μL DMEM containing 10% FBS was added to the mix and removed. Cells were washed once with PBS and incubated in DMEM containing 10% FBS. Cells were analyzed after 2-hour incubation by flow cytometry. For the condition “FS then PI”, only the synthetic peptide shuttle agent (10 μM) was added on HeLa cells for 1 minute and one hour later PI (10 μg/mL) was added for one minute following the same washing step. Cells were analyzed one hour after PI or GFP-NLS treatment.\nHeLa cells were cultured as described in Example 1.3 and subjected to the PI transduction protocol as described in Example 1.4, with the proteinaceous cargo GFP-NLS being transduced separately as a control in some experiments. Results were acquired by flow cytometry two hours after delivery and expressed as percentages of fluorescent cells (% PI+ cells or % GFP+ cells), as shown in FIGS. 1A-1D and as summarized in the table shown in FIG. 2.\nTo evaluate the suitability of PI as a “surrogate” cargo for novel shuttle agents, a proprietary library of over 300 candidate peptide shuttle agents was screened in parallel for both PI and GFP-NLS transduction activity in HeLa cells using flow cytometry as generally described in Example 1.4. Aside from the concentrations of the cargoes (i.e., 10 μg/mL for PI vs 10 μM for GFP-NLS), the transduction protocols were otherwise the same.\nDue to the large number of peptides screened, negative controls were performed in parallel for each experimental batch and included a “no treatment” (NT) control in which the cells were not exposed to shuttle peptide or cargo, as well as a “cargo alone” control in which cells were exposed to the cargo in the absence of shuttle agent. Results are shown in FIGS. 6 and 7, in which “transduction efficiency” refers to the percentage of all viable cells that are positive for the cargo (PI or GFP-NLS). “Mean Delivery score” provides a further indication of the total amount of cargo that was delivered per cell, amongst all cargo-positive cells. Mean PI or GFP-NLS delivery score was calculated by multiplying the mean fluorescence intensity (of at least duplicate samples) measured for the viable PI+ or GFP+ cells by the mean percentage of viable PI+ or GFP+ cells, divided by 100,000 for GFP delivery or by 10,000 for PI delivery. […]"}, "[3]": {"molecular_target": "T1, sodium channel Nav1.7 (Homo sapiens, UniProt Q15858)", "T1 construct": "expressed in transfected cells", "T1 sequence (Q15858 whole entry)": "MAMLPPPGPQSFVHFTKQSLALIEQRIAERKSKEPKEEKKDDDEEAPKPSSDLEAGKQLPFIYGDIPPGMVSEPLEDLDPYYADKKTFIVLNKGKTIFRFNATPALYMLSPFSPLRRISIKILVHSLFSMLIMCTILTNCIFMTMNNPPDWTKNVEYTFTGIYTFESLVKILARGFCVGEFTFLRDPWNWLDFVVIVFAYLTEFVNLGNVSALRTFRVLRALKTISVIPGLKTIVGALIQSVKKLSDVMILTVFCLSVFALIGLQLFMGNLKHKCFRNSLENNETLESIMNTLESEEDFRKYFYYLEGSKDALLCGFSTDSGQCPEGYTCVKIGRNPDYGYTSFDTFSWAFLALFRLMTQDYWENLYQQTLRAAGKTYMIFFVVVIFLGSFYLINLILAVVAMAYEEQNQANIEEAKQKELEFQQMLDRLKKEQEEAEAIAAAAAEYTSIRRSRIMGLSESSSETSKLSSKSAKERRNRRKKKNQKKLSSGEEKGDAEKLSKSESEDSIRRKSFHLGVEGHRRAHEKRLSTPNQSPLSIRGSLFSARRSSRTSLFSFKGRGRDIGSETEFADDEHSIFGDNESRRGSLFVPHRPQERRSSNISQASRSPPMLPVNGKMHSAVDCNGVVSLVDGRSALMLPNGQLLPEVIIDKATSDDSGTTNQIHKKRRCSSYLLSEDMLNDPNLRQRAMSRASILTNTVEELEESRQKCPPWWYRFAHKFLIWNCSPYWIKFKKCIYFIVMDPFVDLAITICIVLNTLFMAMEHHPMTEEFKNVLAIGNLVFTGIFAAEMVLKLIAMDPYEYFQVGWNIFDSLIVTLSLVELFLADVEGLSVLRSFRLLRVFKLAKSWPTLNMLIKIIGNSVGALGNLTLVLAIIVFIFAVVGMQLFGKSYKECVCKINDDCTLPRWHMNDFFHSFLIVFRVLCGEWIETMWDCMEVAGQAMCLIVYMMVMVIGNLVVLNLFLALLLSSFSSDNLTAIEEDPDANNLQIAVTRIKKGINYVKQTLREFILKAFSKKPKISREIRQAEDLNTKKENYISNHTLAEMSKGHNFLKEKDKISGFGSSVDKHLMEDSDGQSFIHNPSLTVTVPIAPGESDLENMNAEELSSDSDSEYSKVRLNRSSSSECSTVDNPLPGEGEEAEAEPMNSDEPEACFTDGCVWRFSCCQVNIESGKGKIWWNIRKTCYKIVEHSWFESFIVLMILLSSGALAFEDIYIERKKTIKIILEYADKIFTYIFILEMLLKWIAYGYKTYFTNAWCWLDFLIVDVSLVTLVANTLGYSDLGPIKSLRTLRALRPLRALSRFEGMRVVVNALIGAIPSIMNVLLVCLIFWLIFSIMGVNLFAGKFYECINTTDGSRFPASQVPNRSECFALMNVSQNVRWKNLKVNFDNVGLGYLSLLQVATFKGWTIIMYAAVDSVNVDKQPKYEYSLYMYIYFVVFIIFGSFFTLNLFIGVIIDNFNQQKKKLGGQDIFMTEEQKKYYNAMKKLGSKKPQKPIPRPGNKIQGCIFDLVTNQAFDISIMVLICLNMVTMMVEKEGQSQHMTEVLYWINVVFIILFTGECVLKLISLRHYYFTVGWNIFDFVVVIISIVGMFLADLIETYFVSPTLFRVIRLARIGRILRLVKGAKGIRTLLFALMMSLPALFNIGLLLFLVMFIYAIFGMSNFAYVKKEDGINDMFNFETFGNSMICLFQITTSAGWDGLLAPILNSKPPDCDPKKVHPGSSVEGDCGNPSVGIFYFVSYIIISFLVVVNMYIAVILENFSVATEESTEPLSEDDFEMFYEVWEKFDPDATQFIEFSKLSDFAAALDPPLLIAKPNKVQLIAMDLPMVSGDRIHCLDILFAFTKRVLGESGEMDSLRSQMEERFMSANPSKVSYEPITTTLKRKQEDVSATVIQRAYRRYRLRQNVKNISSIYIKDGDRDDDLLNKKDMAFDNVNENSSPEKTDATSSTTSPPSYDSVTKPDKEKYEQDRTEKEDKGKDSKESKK", "assay": "QX-314 delivery, whole-cell patch-clamp of HEK293 cells stably expressing Nav1.7", "format": "cell-based", "description": "Cell culture. HEK293 cells stably expressing Nav1.7 were grown in Dulbecco's minimal essential medium (DMEM, Gibco BRL Life Technologies) supplemented with fetal bovine serum (FBS, 10%), L-glutamine (2 mM), penicillin (100 U/mL), streptomycin ([…]). The cells were incubated at 37° C. in a 5% CO2 humidified atmosphere.\n(§1) Delivery. Cells were seeded 24 hours prior to the experiment in 24-well plate. Cells were washed twice with PBS. A solution containing 1 mM of QX-314, 5 μM of FSD194 and 15 μM of GFP-NLS protein was applied to cells for 90 seconds and removed by aspiration. Control was performed using 5 μM of FSD194 or of 2.5 mM QX-314, in presence of GFP-NLS. Cells were washed with 800 μL of DMEM containing 10% FBS and transferred in the recording solution to perform the electrophysiology. GFP-positive cells were determined by microscopy and then selected for patch-clamp analysis.\nElectrophysiology. Frequency protocol with QX-314 was recorded within 30 s after the whole-cell configuration was formed. Frequency protocol consists of a pulse of 10 ms at −20 mV from a holding potential of −140 mV at 10 Hz. Whole-cell Na+ currents in HEK293 cells were recorded at room temperature using an Axopatch 200B with the whole-cell configuration of the patch-clamp technique (Molecular Devices). pClamp v10.0 was used for the pulse stimulations and recordings (Molecular Devices). Currents were filtered at 5 kHz, digitized at 100 kHz using a Digidata 1550 AD converter (Molecular devices), and stored on a computer for subsequent analyses. Series resistance was compensated by 70-80%. When needed, linear leak current artifacts were removed using on-line leak subtraction. Fire-polished low-resistance electrodes (2MS2) were pulled from 8161 glass (Corning).\nRecording Solutions. Bath solution: 35 mM NaCl, 115 mM NMDG, 2 mM KCl, 1.5 mM CaCl2, 1.0 mM MgCl2, 10 mM glucose, 10 mM HEPES. The pH was adjusted to pH 7.3 with 1 M NaOH. Pipette solution: 35 mM NaCl, 105 mM CsF, 10 mM EGTA, and 10 mM HEPES. The pH was adjusted to pH 7.4 with 1 M CsOH."}, "[4]": {"test_system": "HEK293 cells", "assay": "GFP-NLS co-transduction in HEK293 cells, microscopy", "format": "cell-based, Human", "conditions": "5 μM FSD194+15 μM GFP-NLS, with or without QX-314", "description": "as §1"}, "[5]": {"test_system": "HedgeHog pathway", "assay": "Hedgehog pathway inhibitor transduction in vivo, depilated mouse hair regrowth", "set-up": "species or system C57BL6 mice", "conditions": "100 μM inhibitor, topical on depilated skin, in the presence of FSD250D vs in its absence, 10 days post-treatment"}}, "note": "Bridges are numbered along the chain shown (N, C = ends). Where no end group is shown, it is not given here. [ ]: non-standard residue; d: D form."}
{"molecule": "N#C/C(C(=O)c1ccc(Cl)cc1Cl)=C1\\NC(=O)c2ccccc2N1", "note": "[HPI-4]", "values": [{"measurement": "Mean luminescence intensity", "setting": "[1]; +FSD250D (5 μM)", "value": 1993}, {"measurement": "cellular luminescence intensity in the presence of FSD250D as compared to in the absence of FSD250D", "setting": "[1]", "value": "significantly reduced cellular luminescence intensity"}, {"measurement": "Mean luminescence intensity", "setting": "[1]; −FSD250D", "value": 6370}]}
{"molecule": "FSD174 Scramble: negative control peptide, same amino acid composition as FSD174, order changed (LGRSGRIKIGGWSALASRARQARGLKIWTQGRL; FSD174 Scramble)", "values": [{"measurement": "PI transduction efficiency relative to \"cargo alone\" negative control", "setting": "[2]; negative control peptide, data not shown", "value": "lower transduction efficiencies for PI"}]}
{"molecule": "FSD268 Cyclic Amide: cyclic peptide possessing an amide bond between its C and N termini (KWKLLKLWSRLLKLWGGSGGGSQARAQARQAR; head-to-tail cyclic amide; FSD268 Cyclic Amide; (1)..(32) Cyclic peptide covalent link between K1 and R32)", "values": [{"measurement": "delivery / transduction of PI", "setting": "[2]", "value": "increased the delivery of PI"}]}
{"molecule": "CC[N+](CC)(CC)CC(=O)Nc1c(C)cccc1C.[Br-]", "note": "[QX-314, Lidocaine N-ethyl bromide]", "values": [{"measurement": "evoked whole-cell Na+ current amplitude", "setting": "[3]; 1 mM QX-314+15 μM GFP-NLS+5 μM FSD194, 90 seconds, 10 ms pulse at 10 Hz", "value": "Reduction of the current amplitude"}, {"measurement": "evoked whole-cell Na+ current amplitude", "setting": "[3]; 2.5 mM QX-314+15 μM GFP-NLS, absence of FSD194", "value": "current amplitude reduction was not observed"}]}
{"molecule": "CCC(C)n1ncn(-c2ccc(N3CCN(c4ccc(OCC5COC(Cn6cncn6)(c6ccc(Cl)cc6Cl)O5)cc4)CC3)cc2)c1=O", "note": "(stereo not drawn) [Itraconazole]", "values": [{"measurement": "Mean luminescence intensity", "setting": "[1]; +FSD250D (5 μM)", "value": 1519}, {"measurement": "Mean luminescence intensity", "setting": "[1]; −FSD250D", "value": 5612}]}
{"molecule": "Arsenic trioxide [ATO]", "values": [{"measurement": "Mean luminescence intensity", "setting": "[1]; +FSD250D (5 μM)", "value": 4686}, {"measurement": "cellular luminescence intensity in the presence of FSD250D as compared to in the absence of FSD250D", "setting": "[1]", "value": "significantly reduced cellular luminescence intensity"}, {"measurement": "Mean luminescence intensity", "setting": "[1]; −FSD250D", "value": 5967}]}
{"molecule": "FSD250D: same amino acid sequence as FSD250, except that all the amino acids are D-amino acids ([dK][dW][dK][dL][dL][dK][dL][dW][dS][dR][dL][dL][dK][dL][dW]GG[dS]GGG[dS][dA][dR][dA][dA][dR][dQ][dA][dR])", "values": [{"measurement": "effect of shuttle agent alone on luminescence intensity following mShh stimulation", "setting": "[1]; FSD250D together with mShh, no inhibitor, data not shown", "value": "had no effect on cellular luminescence intensity"}]}
{"molecule": "FSD268: rationally-designed synthetic peptide shuttle agent (KWKLLKLWSRLLKLWGGSGGGSQARAQARQAR; FSD268)", "values": [{"measurement": "delivery / transduction of PI", "setting": "[2]", "value": "increased the delivery of PI"}]}
{"molecule": "FSD194: rationally-designed synthetic peptide shuttle agent (KWKLLKLWSRLLKLWGGSGGGSRRLKAKRAKA; FSD194)", "values": [{"measurement": "evoked whole-cell Na+ current amplitude", "setting": "[3]; 15 μM GFP-NLS+5 μM FSD194, without QX-314", "value": "current amplitude reduction was not observed"}, {"measurement": "GFP-NLS-positive cells", "setting": "[4]", "value": "GFP-NLS-positive cells were identified"}]}
{"molecule": "FSD268 Cyclic Disulfide: cyclic peptide with a disulfide bridge between two flanking cysteines added in N and C terminal positions (CKWKLLKLWSRLLKLWGGSGGGSQARAQARQARC; disulfide 1-34)", "values": [{"measurement": "delivery / transduction of PI", "setting": "[2]", "value": "increased the delivery of PI"}]}
{"molecule": "CN(C)c1ccccc1CN1CCCN(Cc2ccccc2N(C)C)C1c1ccncc1", "note": "[Gant61]", "values": [{"measurement": "Mean luminescence intensity", "setting": "[1]; +FSD250D (5 μM)", "value": 4216}, {"measurement": "cellular luminescence intensity in the presence of FSD250D as compared to in the absence of FSD250D", "setting": "[1]", "value": "significantly reduced cellular luminescence intensity"}, {"measurement": "Mean luminescence intensity", "setting": "[1]; −FSD250D", "value": 6770}, {"measurement": "hair regrowth", "setting": "[5]", "value": "delayed hair regrowth"}]}
